Experimental data reported in PMC11301625, “Azobenzene-Based Photoswitchable Substrates for Advanced Mechanistic Studies of Model Haloalkane Dehalogenase Enzyme Family” (ACS Catalysis, 2024).
Like-named read-outs stand apart in the source and are kept apart here.

Experiments:
LinB [1] = molecular target: T1, LinB (Sphingobium indicum, UniProt D4Z2G1); assay: stopped-flow tryptophan fluorescence after preincubation; type: biochemical; conditions: 100 mM glycine pH 8.6, 37 °C; slow irreversible inhibition, substrate E-3c
T1 construct: His-tagged, expressed in E. coli BL21(DE3), Ni-NTA purified; PDB 1MJ5 given for the docking model of the same protein
T1 sequence (D4Z2G1 2-296): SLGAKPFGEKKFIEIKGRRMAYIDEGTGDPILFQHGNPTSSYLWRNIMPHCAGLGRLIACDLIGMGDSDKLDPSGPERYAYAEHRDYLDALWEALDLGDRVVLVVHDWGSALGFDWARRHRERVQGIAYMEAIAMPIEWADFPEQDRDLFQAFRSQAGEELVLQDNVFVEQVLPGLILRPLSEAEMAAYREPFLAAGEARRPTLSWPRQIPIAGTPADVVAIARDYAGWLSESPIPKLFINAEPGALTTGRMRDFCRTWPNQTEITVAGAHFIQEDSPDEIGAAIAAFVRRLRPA

DmmA [2] = molecular target: T2, DmmA (Lyngbya majuscula, UniProt Q6DND9); assay: ITC progress curves; type: biochemical
T2 construct: gene curN; His-tagged, expressed in E. coli BL21(DE3), Ni-NTA purified; PDB 3U1T for the docking model of the same protein
T2 sequence (Q6DND9 25-341): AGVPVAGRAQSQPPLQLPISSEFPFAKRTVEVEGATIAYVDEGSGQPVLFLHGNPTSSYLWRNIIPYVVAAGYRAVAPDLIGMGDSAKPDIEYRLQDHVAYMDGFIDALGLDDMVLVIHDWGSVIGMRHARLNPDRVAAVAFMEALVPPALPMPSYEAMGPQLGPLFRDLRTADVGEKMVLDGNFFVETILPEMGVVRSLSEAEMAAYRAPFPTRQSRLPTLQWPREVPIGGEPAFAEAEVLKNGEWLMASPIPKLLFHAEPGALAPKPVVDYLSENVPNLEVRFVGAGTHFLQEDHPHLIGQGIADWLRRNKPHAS
Description: ITC progress curves on DmmA | Z-isomer of substrate 3a binds to the enzyme’s active site and functions as a competitive inhibitor

DmmA [3] = molecular target: T2, DmmA; assay: global fit of stopped-flow fluorescence/absorbance and ITC; type: biochemical; conditions: 100 mM glycine pH 8.6, 37 °C; enzyme-product complex after isomerization (EP2); read-out: K5
Description: global fit of stopped-flow fluorescence/absorbance and ITC on DmmA

LinB [4] = molecular target: T1, LinB; assay: as above; type: biochemical; conditions: 100 mM glycine pH 8.6, 37 °C
Description: global fit of stopped-flow fluorescence/absorbance and ITC on LinB

ITC progress curves = substrate: C[N+](C)(C)Cc1ccc(/N=N/c2cccc(CCl)c2)cc1; assay: ITC progress curves; type: biochemical, Lyngbya majuscula; conditions: 100 mM glycine pH 8.6, 37 °C

For `C[N+](C)(C)Cc1ccc(/N=N\c2cccc(CCl)c2)cc1` (mixture of isomers) [3c, Z-3c], the “stopped-flow tryptophan fluorescence after preincubation” value (LinB [1]) was “the inhibition effect of Z-3c was significantly more prominent in the case of LinB”.

Work on `COCCOCCOc1ccc(/N=N\c2cccc(CCl)c2)cc1` [3a, Z-3a] yielded a Ki (DmmA [2]) of 0.035 ± 0.001 µM.

`C[N+](C)(C)Cc1ccc(/N=N/c2cccc(CO)c2)cc1` [3c, E-3c-OH] gave a Kd (DmmA [3]) of 3.55 ± 1.01 µM and a Kd (LinB [4]; enzyme-product complex (EP), read-out: K4) of 11.6 ± 0.1 µM.

In the case of `C[N+](C)(C)Cc1ccc(/N=N/c2cccc(CCl)c2)cc1` [3c, E-3c], the Kd (LinB [4]; equilibrium dissociation constant of enzyme-substrate complex, read-out: K1) is reported as 7.39 ± 0.03 µM.

B1: DmmA (Lyngbya majuscula) (protein)
chain: T2 sequence (Q6DND9 25-341)
notes: His-tagged, expressed in E. coli BL21(DE3), Ni-NTA purified; PDB 3U1T for the docking model of the same protein
B1 gave a Km (ITC progress curves) of 850 ± 40 µM and a kcat (ITC progress curves) of 0.50 ± 0.03 s⁻¹.
